Reference: patent publication US5166398A, “4-oxy-substituted phenoxyalkyl carboxylic acid, ester, and alcohol derivatives as antihyper-cholesterolemic and antiatherosclerotic agents” (Warner-Lambert Co., priority 1991, dated 1992)

Target: T1, acyl-CoA:cholesterol acyltransferase (ACAT) (Oryctolagus cuniculus, UniProt G1SFD9)
T1 construct: rabbit intestinal microsomal fraction; from tissue; host or cells: rabbit intestine, microsomal fraction
T1 sequence (G1SFD9 1-524): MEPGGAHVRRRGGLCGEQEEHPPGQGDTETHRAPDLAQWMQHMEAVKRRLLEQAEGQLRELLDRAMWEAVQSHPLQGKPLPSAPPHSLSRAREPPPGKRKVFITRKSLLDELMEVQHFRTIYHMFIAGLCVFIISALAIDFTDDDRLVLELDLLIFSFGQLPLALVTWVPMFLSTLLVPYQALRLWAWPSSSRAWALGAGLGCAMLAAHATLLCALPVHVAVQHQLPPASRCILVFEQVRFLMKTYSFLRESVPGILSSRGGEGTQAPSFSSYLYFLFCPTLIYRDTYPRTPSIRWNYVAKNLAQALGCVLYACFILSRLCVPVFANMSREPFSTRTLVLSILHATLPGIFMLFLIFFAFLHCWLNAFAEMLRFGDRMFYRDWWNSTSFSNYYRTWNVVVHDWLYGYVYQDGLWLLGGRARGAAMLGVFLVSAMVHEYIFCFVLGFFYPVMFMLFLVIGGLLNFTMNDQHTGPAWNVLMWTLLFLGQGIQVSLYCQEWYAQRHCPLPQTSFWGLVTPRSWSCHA
Assay: inhibition of cholesterol esterification by ACAT, rabbit intestinal microsomal fraction (cholesteryl oleate formation from endogenous cholesterol and exogenous 14C-oleoyl-CoA)
Type: biochemical
Conditions: rabbit intestinal microsomes; in vitro; read-out: IC50, concentration of test compound required to inhibit cholesteryl oleate formation to 50% of control
Protocol: The compounds of the present invention were tested for their ability to inhibit the esterification of cholesterol by the enzyme acyl-CoA:cholesterol acyltransferase (ACAT). The data in the table below is expressed as IC50 values, i.e., the concentration of test compound required to inhibit cholesteryl oleate formation to 50% of control.
The in vitro test employed is more fully described in Field, F. J. and Salome, R. G., Biochemica et Biophysica Acta, Vol. 712, pages 557-570 (1982). The assay evaluates the ability of a test compound to inhibit the esterification of cholesterol using endogenous cholesterol of a rabbit intestinal microsomal fraction and exogenous ^14 C-oleoyl-CoA as reactants.

Which IC50 does the source give for `COC(=O)C(C)(C)CCCOc1cc(C)c(OC(=O)Nc2c(C(C)C)cccc2C(C)C)cc1C` [Example 15, 5-[4-[[[[2,6-Bis(1-methylethyl)phenyl]amino]carbonyl]oxy]-2,5-dimethylphenoxy]-2,2-dimethylpentanoic acid, methyl ester] here?
Its IC50 is over 5 µM.

System: not listed separately
Assay: elevation of HDL at 50 mg/kg relative to gemfibrozil 50 mg/kg (procedure of U.S. Pat. No. 4,413,011)
Type: in vivo
Conditions: ratio of HDL elevation, test drug 50 mg/kg vs gemfibrozil 50 mg/kg; 1 = as effective as gemfibrozil
Protocol: Additionally, the elevation of HDL is reported in the table as a ratio of the elevation of HDL effected by a dose of 50 mg/kg of the test drug divided by the elevation of HDL effected by a 50 mg/kg dose of gemfibrozil which is used as a control in each experiment. [formula] Thus, a figure of 1 means that the test drug was as effective as gemfibrozil in elevating HDL. […] The test procedure is described in U.S. Pat. No. 4,413,011 which is herein incorporated by reference.

Which “Δ HDL Test Compound / Δ HDL Gemfibrozil” value does the source give for `Cc1cc(OCCCC(C)(C)C(=O)O)c(C)c(C)c1OCc1ccccc1` [Example 9, 2,2-Dimethyl-5-[2,3,5-trimethyl-4-(phenylmethoxy)-phenoxy]pentanoic acid] here?
Its value is 0.9.

Which “Δ HDL Test Compound / Δ HDL Gemfibrozil” value does the source give for `CCCCOc1cc(C)c(OCCCC(C)(C)C(=O)OC)cc1C` [Example 2, 5-(4-Butoxy-2,5-dimethylphenoxy)-2,2-dimethylpentanoic acid, methyl ester] here?
Its value is 0.85.

Which “Δ HDL Test Compound / Δ HDL Gemfibrozil” value does the source give for `COc1cc(C)c(OCCCC(C)(C)C(=O)O)cc1C` [Example 4, 5-(4-Methoxy-2,5-dimethylphenoxy)-2,2-dimethylpentanoic acid] here?
Its value is 1.2.

For `COC(=O)C(C)(C)CCCOc1cc(C)c(OCc2ccccc2)c(C)c1` [Example 11, 5-[3,5-Dimethyl-4-(phenylmethoxy)phenoxy]-2,2-dimethylpentanoic acid, methyl ester], which “Δ HDL Test Compound / Δ HDL Gemfibrozil” value is on record?
The value was 1.2.

With `Cc1cc(OCCCC(C)(C)CO)c(C)c(C)c1OCc1ccccc1` [Example 10] as the molecule, how does the “Δ HDL Test Compound / Δ HDL Gemfibrozil” value read?
The value was 0.9.

For `CCOc1cc(C)c(OCCCC(C)(C)C(=O)O)cc1C` [Example 6, 5-(4-Ethoxy-2,5-dimethylphenoxy)-2,2-dimethylpentanoic acid], which “Δ HDL Test Compound / Δ HDL Gemfibrozil” value is on record?
The value was 1.4.

With `COC(=O)C(C)(C)CCCOc1c(C)cc(OC(=O)C(C)(C)C)c(C)c1C` [Example 7, 5-[4-(2,2-Dimethyl-1-oxopropoxy)-2,3,6-trimethylphenoxy]-2,2 dimethylpentanoic acid, methyl ester] as the molecule, how does the “Δ HDL Test Compound / Δ HDL Gemfibrozil” value read?
The value was 1.1.

For `COC(=O)C(C)(C)CCCOc1cc(C)c(OCc2ccccc2)c(C)c1C` [Example 8, 2,2-Dimethyl-5-[2,3,5-trimethyl-4-(phenylmethoxy)phenoxy]pentanoic acid, methyl ester], which “Δ HDL Test Compound / Δ HDL Gemfibrozil” value is on record?
Its value is 1.0.

Which “Δ HDL Test Compound / Δ HDL Gemfibrozil” value does the source give for `CCOc1cc(C)c(OCCCC(C)(C)C(=O)OC)cc1C` [Example 3, 5-(4-Ethoxy-2,5 dimethylphenoxy)-2,2 dimethylpentanoic acid, methyl ester] here?
The value was 1.2.

Which “Δ HDL Test Compound / Δ HDL Gemfibrozil” value does the source give for `Cc1cc(OCc2ccccc2)c(C)cc1OCCCC(C)(C)C(=O)O` [Example 14, 5-[2,5-Dimethyl-4-(phenylmethoxy)phenoxy]-2,2-dimethylpentanoic acid] here?
The value was 1.0.

With `CCCCOc1cc(C)c(OCCCC(C)(C)C(=O)O)cc1C` [Example 5, 5-(4-Butoxy-2,5-dimethylphenoxy)-2,2-dimethylpentanoic acid] as the molecule, how does the “Δ HDL Test Compound / Δ HDL Gemfibrozil” value read?
The value was 0.9.

System: coronary heart disease
Assay: not given
Conditions: human, in vivo; cited from earlier work

Which results are given for `Cc1ccc(C)c(OCCCC(C)(C)C(=O)O)c1` [gemfibrozil]?
effect on HDL (in words): elevates HDL; effect on LDL (in words): lowers LDL

Same assay, conditions: patients with elevated cholesterol levels; five-year trial; cited from earlier work

With `Cc1ccc(C)c(OCCCC(C)(C)C(=O)O)c1` [gemfibrozil] as the molecule, how does the “reduction of the rate of heart attack and sudden cardiac death” value read?
Its value is 34%.
